{
  "source": "patent US7923440B2",
  "about": "“Method of treating or preventing immune mediated disorders and pharmaceutical formulation for use therein” (Pantarhei Bioscience B.V., priority 2002, dated 2011)",
  "key": {"[1]": {"test_system": "AP-1 site in the presence of ERβ", "conditions": "in the presence of / through ERβ, Paech et al. 1997; cited from earlier work"}, "[2]": {"test_system": "AP-1 site in the presence of ERα", "conditions": "Paech et al. 1997; cited from earlier work"}, "[3]": {"target": "T1, human sex Hormone Binding Globulin (SHBG) (Homo sapiens, UniProt P04278)", "T1 construct": "made in house; host or cells: transgenic mouse (serum)", "T1 sequence (P04278 30-402)": "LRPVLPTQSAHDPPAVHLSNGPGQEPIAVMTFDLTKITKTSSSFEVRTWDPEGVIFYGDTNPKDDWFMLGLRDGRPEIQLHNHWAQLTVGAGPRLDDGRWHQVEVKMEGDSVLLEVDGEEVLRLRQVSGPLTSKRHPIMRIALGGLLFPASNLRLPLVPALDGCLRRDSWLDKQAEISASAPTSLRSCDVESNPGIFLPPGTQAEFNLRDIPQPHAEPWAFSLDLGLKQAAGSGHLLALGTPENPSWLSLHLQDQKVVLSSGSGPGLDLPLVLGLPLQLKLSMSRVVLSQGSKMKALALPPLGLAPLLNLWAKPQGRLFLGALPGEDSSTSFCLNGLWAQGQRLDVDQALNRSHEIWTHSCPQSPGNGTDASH", "test": "Competitive steroid-binding assay for SHBG", "conditions": "comparison among tested steroids; order ethinylestradiol, 17β-estradiol, testosterone, 5α-dihydrotestosterone", "method": "Human SHBG was treated for 30 min at room temperature with a dextran-coated charcoal (DCC) suspension in phosphate buffered saline (PBS) to remove any steroid ligand. After centrifugation (2,000×g for 10 min) to sediment the DCC, the supernatant containing the human SHBG was diluted in PBS to a concentration of 1 nM based on its steroid binding capacity.\nThe average amounts of [^3H]labeled ligands bound to SHBG at each concentration of competitor (B) were expressed as a percentage of the average amounts of [^3H]labeled ligands bound to SHBG in the absence of competitor (B0), and were plotted against the concentration of competitor in each assay tube."}, "[4]": {"test_system": "castrated mice with experimental autoimmune encephalomyelitis (EAE)", "conditions": "amount inducing serum levels of late stage pregnancy, Jansson et al. 1998; cited from earlier work"}, "[5]": {"conditions": "elimination from the blood; cited from earlier work"}, "[6]": {"test_system": "male DBA/1 mice with collagen induced arthritis (CIA)", "test": "Collagen induced arthritis (CIA) in male DBA/1 mice, oral treatment", "assay_type": "in vivo, mouse", "conditions": "1 mg/kg", "method": "The ability of estetrol to alleviate the severity of immune mediated disorders and its possible side-effects were evaluated and compared with dexamethasone in mice developing collagen induced arthritis (CIA), which is another experimental system of autoimmune and chronic inflammatory disease, representing human arthritic diseases, particularly rheumatoid arthritis (RA).\nArthritis was induced in male DBA/1 mice using a two-step immunization protocol (Joosten et al., “Dual role of IL-12 in early and late stages of murine collagen type II arthritis”. J Immunol 1997; 159:4094-4102; Joosten et al., “IL-1β blockade prevents cartilage and bone destruction in murine type II collagen-induced arthritis, whereas TNFα blockade only ameliorates joint inflammation”. J Immunol 1999; 163:5049-55). This strain is highly susceptible to CIA induced with bovine type II collagen. On day 0, mice were immunized with bovine type II collagen (100 μg) emulsified in Freund's complete adjuvant (four subcutaneous injections in the back). On day 21, mice were boosted with an i.p. injection of 100 μg collagen type II diluted in PBS.\nThe effect of oral treatment with estetrol on collagen-induced arthritis was studied in a 6-week study design. From day 22 until the end of the study (day 42), the animals were treated once daily with vehicle (hydroxypropyl-beta-cyclodextrin in a 20% wt/vol solution in water) serving as negative control or four different dosages of estetrol (3 mg/kg, 1 mg/kg, 0.3 mg/kg and 0.1 mg/kg). Dexamethasone (1 mg/kg), was chosen as a positive control because it is a well studied corticosteroid that reduces swelling and inflammation and is used in a variety of disorders such as skin diseases (psoriasis, hives), allergic conditions, breathing problems, cancer, blood disorders (anemia), digestive problems, eye disorders and for the treatment of arthritis. Although effective as an anti-inflammatory agent, dexamethasone is also known to induce a number of side effects, which amongst others include in humans the induction of osteoporosis, reduced adrenal function, dizziness, nausea, indigestion, increased appetite, weight gain due to enhanced water retention, weakness and/or sleep disturbances. In addition, systemic dexamethasone treatment in rodents results in strong catabolic effects that can be easily observed as weight loss (Orzechowski et al. 2002, “Rats with a glucocorticoid-induced catabolic state show symptoms of oxidative stress and spleen atrophy: the effects of age and recovery”. J Vet Med A Physiol Pathol Clin Med; 49:256-63).\nAll groups used in the study consisted of 13 mice. During the study animals were weighed and monitored for clinical signs of arthritis. Scoring of disease severity (clinical arthritis score) was performed according to scoring system described by Joosten et al. 1997 (J. Immunol., 159:4094-4102) and Joosten et al. 1999 (J. Immunol., 163:5049-55).\nBasic statistical analyses were performed as follows: The significance of differences between all treatment groups in the main clinical outcome parameters was tested using analysis of variance (ANOVA). Each significant ANOVA was followed by post hoc Tukey tests to determine the significance of the difference between each treatment group and the control group. Furthermore, linear regression analysis was used to study the dose-dependency of the effects of treatment with estetrol. All statistical analysis were performed using statistical software program SPSS 10.0 for Windows (SPSS Inc., Chicago, Ill., USA)."}},
  "data": [
    {"compound": "CC/C(=C(\\c1ccccc1)c1ccc(OCCN(C)C)cc1)c1ccccc1", "note": "[tamoxifen]", "values": [
      {"measurement": "effect on AP-1 site", "setting": "[1]", "result": "stimulate"},
      {"measurement": "effect on AP-1 site", "setting": "[2]", "result": "inhibit"}
    ]},
    {"compound": "C[C@]12CC[C@@H]3c4ccc(O)cc4C[C@@H](CCCCCCCCC[S+]([O-])CCCC(F)(F)C(F)(F)F)[C@H]3[C@@H]1CC[C@@H]2O", "note": "(stereo partly shown) [ICI-182,780]", "values": [
      {"measurement": "effect on AP-1 site", "setting": "[1]", "result": "stimulate"},
      {"measurement": "effect on AP-1 site", "setting": "[2]", "result": "inhibit"}
    ]},
    {"compound": "O=C(c1ccc(OCCN2CCCCC2)cc1)c1c(-c2ccc(O)cc2)sc2cc(O)ccc12", "note": "[raloxifene]", "values": [
      {"measurement": "effect on AP-1 site", "setting": "[1]", "result": "stimulate"},
      {"measurement": "effect on AP-1 site", "setting": "[2]", "result": "inhibit"}
    ]},
    {"compound": "C[C@]12CC[C@H]3[C@@H](CCC4=CC(=O)CC[C@@]43C)[C@@H]1CC[C@@H]2O", "note": "[testosterone, reference compound]", "values": [
      {"measurement": "relative binding affinity for human SHBG", "setting": "[3]", "result": "in this order, show an increased relative binding affinity for human SHBG"}
    ]},
    {"compound": "C[C@]12CC[C@@H]3c4ccc(O)cc4CC[C@H]3[C@@H]1C[C@@H](O)[C@@H]2O", "note": "[estriol]", "values": [
      {"measurement": "onset of experimental autoimmune encephalomyelitis (EAE)", "setting": "[4]", "result": "delays the onset"}
    ]},
    {"compound": "C[C@]12CC[C@@H]3c4ccc(O)cc4CC[C@H]3[C@@H]1CC[C@@H]2O", "note": "[E2, 17β-estradiol]", "values": [
      {"measurement": "effect on AP-1 site", "setting": "[1]", "result": "inhibits"},
      {"measurement": "onset of experimental autoimmune encephalomyelitis (EAE)", "setting": "[4]", "result": "delays the onset"},
      {"measurement": "effect on AP-1 site", "setting": "[2]", "result": "activates"},
      {"measurement": "half-life", "setting": "[5]", "result": "around 1 hour"}
    ]},
    {"compound": "C[C@@H]1C[C@H]2[C@@H]3CCC4=CC(=O)C=C[C@]4(C)[C@@]3(F)[C@@H](O)C[C@]2(C)[C@@]1(O)C(=O)CO", "note": "[dexamethasone, reference compound]", "values": [
      {"measurement": "average cumulative arthritis score", "setting": "[6]; day 21 to 42, vehicle 31.4±1.73", "result": 0},
      {"measurement": "body weight, % of initial weight (day 21)", "setting": "[6]; day 28", "result": 91.5, "unit": "%"},
      {"measurement": "body weight, % of initial weight (day 21)", "setting": "[6]; day 35", "result": 91.4, "unit": "%"},
      {"measurement": "body weight, % of initial weight (day 21)", "setting": "[6]; day 42", "result": 94.0, "unit": "%"},
      {"measurement": "macroscopic arthritis score", "setting": "[6]; until day 42, vehicle 5.90±0.38 on day 42", "result": 0},
      {"measurement": "disease incidence (arthritis)", "setting": "[6]; up to day 42", "result": 0, "unit": "%"}
    ]},
    {"compound": "C[C@]12CCC(=O)C[C@@H]1CC[C@@H]1[C@@H]2CC[C@]2(C)[C@@H](O)CC[C@@H]12", "note": "[5α-dihydrotestosterone, reference compound]", "values": [
      {"measurement": "relative binding affinity for human SHBG", "setting": "[3]", "result": "in this order, show an increased relative binding affinity for human SHBG"}
    ]}
  ]
}
